In patent publication US7485759B2, “Minimization of ligand degradation products, or reversion of same to useful phosphine ligands” (Dow Technology Investments LLC, priority 2003, dated 2009):
Like-named read-outs stand apart in the source and are kept apart here.

Tests used:
[1] = Hydrocarbonylation of 2-pentenal with different ligands; ligand converted to phosphonium ion ligand degradation product by 31P-NMR (Example 4); type: physicochemical; conditions: ligand converted to phosphonium ion degradation product as percentage of total ligand; 3 hours, 70° C., 300 psig CO, 600 psig H2, 1570 ppm Rh, 4.6 mol ligand/mol Rh, 2-pentenal in 1-butanol
Method: In a series of hydroformylation reactions (4A-D) 2-pentenal (50 mmols) was subjected to hydrocarbonylation conditions for 3 hours using a rhodium catalyst promoted with a variety of ligands having different cone angles and pKa's. Hydrocarbonylation conditions included: 70° C., 300 psig (2,068 kPa) carbon monoxide, 600 psig (4,136 kPa) hydrogen, 1570 ppm Rh, 4.6 mol ligand/mol Rh, and 40 wt % initial 2-pentenal in 1-butanol solvent. The source of Rh was Rh4(CO)12. During the course of the reaction 2-pentenal was hydrogenated to valeraldehyde and then to pentanol. After the reaction was completed, the reaction fluid was examined by P^31-NMR spectroscopy to determine the amount of ligand converted to phosphonium ion ligand degradation product, as a percentage of the total ligand in solution.

[2] = Ligand basicity measured by pKa; type: physicochemical; conditions: est = estimated value
Method: Basicity (electronic effect) measures the reactivity of a ligand towards a proton. Ligands with lower attraction to binding a proton are less basic, and therefore, generally of lower nucleophilicity. […] Generally, basicity is measured by pKa, known to those of skill in the art, as described in Organometallics, (1989) 8(1), 1, and by Wm. A. Henderson, Jr. and C. A. Streuli, Journal of the American Chemical Society, (1960), 82, 5791-5794, and by Tim Allman, et al., Canadian Journal of Chemistry (1982), 60(6), 716-722, all references incorporated herein by reference. Ligands having a pKa typically of less than about 8.3 provide for reduced formation of phosphonium ion ligand degradation products.

[3] = cited from earlier work
[4] = Batch hydrocarbonylation of 1,3-butadiene; phosphonium salts followed by 31P-NMR and ligand usage (Examples 1-3); type: physicochemical
Method: A batch hydrocarbonylation of 1,3-butadiene (BD) to pentenols was conducted at the following conditions: 70° C., 300 psig (2,068 kPa) carbon monoxide, 600 psig (4,136 kPa) hydrogen, 1570 ppm Rh, 4.6 mol ligand/mol Rh, and 40 wt % initial BD in 1-butanol solvent. Trioctylphosphine was used as ligand, and the Rh source was Rh4(CO)12. Multiple samples were taken from the reactor and analyzed by phosphorus-31 nuclear magnetic resonance spectroscopy (^31P-NMR) to follow the concentration of phosphonium ion ligand degradation products (phosphonium salts) with time. The concentration of phosphonium salts increased between t=0 and t=60 min, and their concentration reached a maximum of 0.008 mol/L at t=60 min. […] The concentration of 2-pentenal (α,β-unsaturated aldehyde) also reached a maximum at 60 min.
The BD conversion at the time when the concentrations of phosphonium salts and α,β-unsaturated aldehyde were at their maximum was 39%. Had the reaction been stopped at 39% conversion of BD, the ligand usage (lost) to phosphonium salts would have been 65 g/L/day. However, the reaction was continued until 480 minutes to allow for the 2-pentenal to react away under normal reaction conditions. […] The BD conversion at t=480 min was 98%. When the reaction was stopped at 98% BD conversion, the ligand usage (lost) to phosphonium salts was less than 1 g/L/day.
A batch hydrocarbonylation of 1,3-butadiene (BD) was conducted to partial conversion followed by stripping of the reaction product solution with hydrogen to hydrogenate residual α,β-unsaturated aldehyde (2-pentenal). The batch hydrocarbonylation was conducted at the following conditions: 70° C., 300 psig (2,068 kPa) carbon monoxide, 600 psig (4,136 kPa) hydrogen, 1590 ppm Rh, 4.5 mol ligand/mol Rh, and 40 wt % initial BD in 1-butanol solvent. The ligand used was trioctylphosphine, and the Rh source was Rh4(CO)12. The reaction was conducted for 130 minutes and reached 67% conversion BD. At that time, the concentration of phosphonium salts and α,β-unsaturated aldehyde (2-pentenal) were both about 0.006 mol/L. If no attempt had been made to revert the phosphonium salts at this point, the ligand usage (lost) to phosphonium salts would have been 25 g/L/day. The reactor was vented down to atmospheric pressure to remove most of the syn-gas (CO+H2). The reactor was then re-pressurized back to 900 psig (6,205 kPa) with pure hydrogen. […] Hydrogen was continuously sparged through the reactor at a rate of 0.5 standard cubic feet per hour (SCFH) during the time when the reactor was at 120° C. and 900 psig (6,205 kPa). After 10 minutes of stripping with hydrogen, all phosphonium salts were undetectable by ^31P-NMR, and the α,β-unsaturated aldehyde was undetectable by gas chromatography. The concentration of both of these species remained at essentially “0” for the remainder of the experiment. The ligand usage (loss to phosphonium salts) was reduced from 25 g/L/day to less than 1 g/L/day by reverting the phosphonium salts by hydrogenating the residual α,β-unsaturated aldehyde with hydrogen.
A batch hydrocarbonylation of 1,3-butadiene (BD) was conducted to partial conversion followed by stripping of the reaction product solution with nitrogen to remove residual α,β-unsaturated aldehyde (2-pentenal) by volatilization at […]. The batch hydrocarbonylation was conducted at the following conditions: 70° C., 300 psig (2,068 kPa) carbon monoxide, 600 psig (4,136 kPa) hydrogen, 1590 ppm Rh, 4.6 mol ligand/mol Rh, and 40 wt % initial BD in 1-butanol solvent. The ligand used was trioctylphosphine, and the Rh source was Rh4(CO)12. The reaction was conducted for 120 minutes and reached 72% conversion of BD. At that time, the concentration of phosphonium salts and α,β-unsaturated aldehyde were about 0.005 and 0.016 mol/L, respectively. If no attempt had been made to revert the phosphonium salts at this point, the ligand usage (lost) to phosphonium salts would have been about 20 g/L/day. […]

With `CCCCP(CCCC)C1CCCCC1` [Cyclohexyldi-n-butylphosphine] the “% Phosphonium Salt (by wt.)” value [1] was 9.8% and the pKa [2] was about 8.9.
For `CC(C)CP(CC(C)C)CC(C)C` [Tri-isobutylphosphine], the PKa [3] is listed as 7.97, the PKa ([3]; listed as tri-isobutylphosphine) is listed as “less than 8.3” and the “% Phosphonium Salt (by wt.)” value [1] is listed as 0.3%.
For `CCCCCCCCP(CCCCCCCC)CCCCCCCC` [tri-n-octylphosphine], the “ligand usage (lost) to phosphonium salts” value ([4]; Example 1, had the reaction been stopped at 39% conversion of BD) was 65 g/L/day, the “concentration of phosphonium salts” value ([4]; Example 1, maximum at t=60 min, 39% BD conversion, 70° C.) was 0.008 mol/L and the “ligand usage (lost) to phosphonium salts” value ([4]; Example 1, reaction stopped at 98% BD conversion) was “less than 1 g/L/day”. For the same compound, the “concentration of phosphonium salts” value ([4]; Example 1, t=480 min, 98% BD conversion) was 0.0005 mol/L, the “ligand usage (lost) to phosphonium salts” value ([4]; Example 2, 67% conversion BD, if no attempt made to revert) was 25 g/L/day and the “concentration of phosphonium salts” value ([4]; Example 2, 130 minutes, 67% conversion BD, before reversion) was “about 0.006 mol/L”. The “phosphonium salts by 31P-NMR” value ([4]; Example 2, after 10 minutes of stripping with hydrogen, 120° C., 900 psig) was “undetectable”, the “ligand usage (loss to phosphonium salts)” value ([4]; Example 2, after reversion with hydrogen) was “less than 1 g/L/day” and the “ligand usage (lost) to phosphonium salts” value ([4]; Example 3, 72% conversion of BD, if no attempt made to revert) was “about 20 g/L/day”. For the same compound, the “concentration of phosphonium salts” value ([4]; Example 3, 120 minutes, 72% conversion of BD, before reversion) was “about 0.005 mol/L”, the “concentration of phosphonium salts” value ([4]; Example 3, after 20 minutes of stripping with nitrogen, 120° C., 900 psig) was 0.0005 mol/L and the “ligand usage (loss to phosphonium salts)” value ([4]; Example 3, after stripping with nitrogen) was 2 g/L/day. For the same compound, the pKa [2] was at least 8.3.
